Here are results for 18 compounds from patent EP1166781A1, “PROTEASOME INHIBITORS” (KYOWA HAKKO KOGYO CO., LTD., priority 1999, dated 2000).

Read-outs that look alike come from different tables or passages of the source.

The T/C is the result in the treated group divided by that in the control group, in per cent. For orientation: IC50 means the midpoint of a concentration-inhibition curve.

Test [1] relates to human colon cancer cell line, WiDr transplanted in nude mice. The test can be described thus: Antitumor activity for WiDr transplanted in nude mice. Type of test: in vivo, BALB/c-nu/nu mouse. Particulars: intraperitoneally for 5 consecutive days, 7 days, WiDr solid tumor in mice. How it is done: Compound 4 was dissolved in ethanol and then prepared at the fixed concentrations by adding cremophor EL (supplied by SIGMA) and saline. At this time, final concentrations of ethanol, cremophor EL, and saline are 5%, 7.5% and 87.5%, respectively. 2 mm x 2 mm of the tumor piece of human colon cancer cell line, WiDr was subcutaneously transplanted in the ventral site of a BALB/c-nu/nu mouse. At the time when a tumor volume [a major axis (a), a minor axis (b): ab^2/2] attained to 25-60 mm^3, the test compound prepared was intraperitoneally administered for 5 consecutive days to five mice as one proup.
For evaluating antitumor activity of the compound, the tumor volume was measured everyday, and the ratio of the volume (V) on the day of each measurement to the volume (V0) on the day when the administration of the compound was started was obtained to calculate T/C(%).

Test [2] has as its system Human colon cancer, WiDr cells. The test can be described thus: Antiproliferative activity in WiDr cells (MTT, 72 hours). Type of test: cell-based. How it is done: Human colon cancer, WiDr cells suspended in MEM media containing 10% of fetal calf serum were seeded in 96-well microtiter plates at 2 x 10^3cells/well, and precultured in an incubator with 5% of CO2 at 37°C for 24 hours. Then, each compound diluted appropriately with the media was added into the well at 50 µl/well. At this time, a final concentration of each compound is up to 100 µmol/l or 1 µmol/l. The cells were cultured in the incubator with 5% of CO2 at 37°C for additional 72 hours. At 5 hours before the culturing was terminated, MTT [3-(4,5-dimethylthiazol-2-yl)-2,5-[…] bromide] dissolved in the medium at a final concentration of 1 mg/mL was added into the well at 50 µl/well. After the culturing, dimethyl sulfoxide was added to the well at 150 µl/well, and the plate was vigorously stirred using a plate mixer to dissolve crystals of MTT-formazan completely. […]

Another test addresses T1, proteasome (Homo sapiens, UniProt P28074).
T1 construct: The obtained high molecular fraction (molecular weight >500K) was used as an enzyme solution for the detection of proteasome activity; endogenous in cells; host or cells: HeLa S3 cells: homogenate, 100,000G supernatant, >500K fraction from Centricon-500
The test can be described thus: Proteasome inhibitory activity (Suc-Leu-Leu-Val-Tyr-AMC cleavage, crude enzyme solution from HeLa S3 cell extract). It counts as biochemical. How it is done:
1 x 10^9 of HeLa S3 cells were dispersed in 5 ml of the buffer A [20 mmol/L of Tris (pH 7.5), 2 mmol/L of ATP, 5 mmol/L of MgCl2, 1 mmol/L of dithiothreitol (DTT)], and then homogenized at 4°C. The supernatant centrifuged at 100,000G was concentrated by a Centricon-500 (supplied by Amicon) and diluted with 2.5 ml of the buffer B [25 mmol/L of Tris/HCl (pH 7.5), 2 mmol/L of ATP, 1 mmol/L of DTT, 20% of glycerol]. The obtained high molecular fraction (molecular weight >500K) was used as an enzyme solution for the detection of proteasome activity. Suc-Leu-Leu-Val-Tyr-AMC [Suc: Succinyl; AMC: Aminomethylcoumarin](supplied by Peptide Institute, Inc.) was used as a substrate for measuring inhibitory activity for proteasome (stored as a 2 mmol/L DMSO solution). The reaction was carried out by the following method using 96-well microtiter plates. To 96 µl of a reaction buffer [20 mmol/L of Tris/HCl (pH 8), 0.5 mmol/L of EDTA, 0.04% of sodium dodecylsulfate (SDS)] were added 1 µl of a drug solution (DMSO) and 2 µl of an enzyme solution followed by adding 1 µl of a substrate solution thereto, and then the mixture was incubated at 37°C for one hour. […]

Setting [3] is: crude proteasome fraction (>500K) from HeLa S3 cells, substrate Suc-Leu-Leu-Val-Tyr-AMC, 37°C for one hour, read-out: IC50.

In the case of `CCC(C)C1C(=O)OC1C(=O)NC1CC1CC(NC(=O)C(C)N)C(=O)OCc1ccccc1` (centres unmarked) [Compound 4], the T/C is reported as 56% in test [1] (Dose 5.0 mg/kg/day) and 49% in test [1] (Dose 10.0 mg/kg/day). The IC50 is 50 nM in test [2] and 30 nM at proteasome (setting [3]).
For `CCC(C)C1C(=O)OC1C(=O)NC1CC1CC(NC(=O)C(C)NC(=S)NCc1ccccc1)C(=O)OCc1ccccc1` (centres unmarked) [Compound 32], the IC50 in test [2] turned out to be 433 nM; at proteasome (setting [3]), 5 nM.
With `CCC(C)C1C(=O)OC1C(=O)NC1CC1CC(NC(=O)C(C)NC(=O)c1ccccc1)C(=O)OCc1ccccc1` (centres unmarked) [Compound 33], the 50% inhibitory concentration (IC50) in test [2] turned out to be 76 nM; on proteasome (setting [3]) it was 15 nM.
For `CCC(C)C1C(=O)OC1C(=O)NC1CC1CC(NC(=O)C(C)NC=O)C(=O)OCc1ccccc1` (centres unmarked) [Compound 34], the IC50 in test [2] turned out to be 1200 nM; at proteasome (setting [3]), 38 nM.
Take `CCC(C)C1C(=O)OC1C(=O)NC1CC1CC(NC(=O)C(C)NC(C)=O)C(=O)OCc1ccccc1` (centres unmarked) [Compound 35]: the results for the IC50 (in test [2]; on proteasome (setting [3])) were 93 nM and 27 nM, respectively.
Taken in the same sequence, the figures for `CCC(C)C1C(=O)OC1C(=O)NC1CC1CC(NC(=O)C(C)NC(=O)c1cnccn1)C(=O)OCc1ccccc1` (centres unmarked) [Compound 36] were 62 nM and 21 nM.
With `CCC(C)C1C(=O)OC1C(=O)NC1CC1CC(NC(=O)C(C)NC(=O)CO[Si](C)(C)C(C)(C)C)C(=O)OCc1ccccc1` (centres unmarked) [Compound 37], the figures for the IC50 (in test [2]; at proteasome (setting [3])) were 5700 nM and 6 nM, respectively.
For `CCC(C)C1C(=O)OC1C(=O)NC1CC1CC(NC(=O)C(C)NS(=O)(=O)c1ccccc1)C(=O)OCc1ccccc1` (centres unmarked) [Compound 39], the half-maximal inhibitory concentration (IC50) in test [2] was determined as 486 nM; at proteasome (setting [3]) it was 8 nM.
In the same order, the values of `CCC(C)C1C(=O)OC1C(=O)NC1CC1CC(NC(=O)C(C)NS(C)(=O)=O)C(=O)OCc1ccccc1` (centres unmarked) [Compound 40] are 450 nM and 24 nM.
`CCC(C)C1C(=O)OC1C(=O)NC1CC1CC(NC(=O)C(C)NP(=O)(c1ccccc1)c1ccccc1)C(=O)OCc1ccccc1` (centres unmarked) [Compound 41]: the IC50 was 2400 nM in test [2] and 12 nM at proteasome (setting [3]).
Take `CCC(C)C1C(=O)OC1C(=O)NC1CC1CC(NC(=O)C(C)N(Cc1ccccc1)Cc1ccccc1)C(=O)OCc1ccccc1` (centres unmarked) [Compound 43]: the IC50 in test [2] was determined as 3900 nM; on proteasome (setting [3]) it was 14 nM.
Take `CCC(C)C1C(=O)OC1C(=O)NCCCC(NC(=O)C(C)NC(=O)OC(C)(C)C)C(=O)OCc1ccccc1` (centres unmarked) [Compound 45]: the figures for the concentration for half-maximal inhibition (IC50) (in test [2]; at proteasome) were 300 nM and 6 nM, respectively.
Consider `CCC(C)C1C(=O)OC1C(=O)NCCCC(NC(=O)C(C)N)C(=O)OCc1ccccc1` (centres unmarked) [Compound 46], for which the results for the IC50 (in test [2]; on proteasome (setting [3])) were 150 nM and 6 nM, respectively.
With `CC(C)C[C@@H]1C(=O)O[C@H]1C(=O)NCCCC[C@H](NC(=O)[C@H](C)N)C(=O)OCc1ccccc1` [Compound 50], the IC50 in test [2] was determined as 1800 nM; at proteasome (setting [3]), 30 nM.
Taken in the same sequence, the figures for `CC(C)CC1C(=O)OC1C(=O)NCCCCC(COC(=O)c1ccccc1)NC(=O)C(C)NC(=O)OC(C)(C)C` (centres unmarked) [Compound 56] were 1900 nM and 22 nM.
Taken in the same sequence, the figures for `CC(C)C[C@@H]1C(=O)O[C@H]1C(=O)NC1CC1CC(NC(=O)OC(C)(C)C)C(=O)NCc1cccc2ccccc12` (some centres unmarked) [Compound 90] were 40000 nM and 22 nM.
For the compound `CC(C)C[C@@H]1C(=O)O[C@H]1C(=O)NC1CC1CC(NC(=O)[C@H](C)NC(=O)OC(C)(C)C)C(=O)NCc1cccc2ccccc12` (some centres unmarked) [Compound 91], the IC50 stood at 22000 nM in test [2] and 24 nM at proteasome (setting [3]).
`CCC(C)C1C(=O)OC1C(=O)NC1CC1CC(NC(=O)C(C)N)C(=O)O` (centres unmarked) [UCK14A1, reference compound]: the 50% inhibitory concentration (IC50) in test [2] is above 30000 nM; at proteasome (setting [3]) it was 400 nM.
